Test results reported in patent US10815264B2, “Nucleotides for the treatment of cancer” (IDENIX PHARMACEUTICALS LLC, priority 2015, dated 2020).
Where two headings read alike, the source gives them in different places.

Assays:
Experiment in all cases: In vitro inhibition, CellTiter-Glo (CTG) assay, 72 hr exposure
Format in all cases: cell-based
MiaPACA-2 = tested on: MiaPACA-2
Description: (§1) Cells were grown in RPMI-1640 supplemented with L-Glutamine and 10% FBS of the following cell lines:
(§2) CCRF-CEM; CCRF-CEM-cytarabine resistant; HL-60; K562; CFPAC-1; MiaPACA-2; BxPC-3; PANC-1; HepG2; MDA-MB-231; HCT-116; A498; and NCI-H69
(§3) 18, 96 well plates of each cell line were seeded with the optimized number of cells per well in a total volume of 50 μL per well. The plates were left overnight. Plate wells were seeded with 100 μL media for media control. The following day, cells were exposed to test compounds as described below. At the same time as drug exposure, a CTG assay was conducted on the 18th plate for the 0 hr count.
(§4) The compounds were added to cells and medium already on the plate to give desired final concentrations. 50 μL media were added to cell control wells, and 50 μL of mix added to vehicle control wells. 10 μM Doxorubicin was added to appropriate wells. Cells exposed to test compound were incubated at 37° C. for 72 hr followed by a CTG assay.
(§5) At the end of the 72 hr exposure period, plates were removed for a CellTiter-Glo (CTG) assay from a 37° C., 5% CO2 incubator and placed on the bench at room temperature for 30 mins. 100 μL of CellTiter-Glo reagent was added and mixed for 2 mins, followed by a further 10 min incubation at room temperature. Luminescence was recorded using Synergy 4.0.

HL-60 = tested on: HL-60
Description: as §1, §2, §3, §4, §5

NCI-H69 = tested on: NCI-H69
Description: as §1, §2, §3, §4, §5

A498 = tested on: A498
Description: as §1, §2, §3, §4, §5

HCT-116 = tested on: HCT-116
Description: as §1, §2, §3, §4, §5

CCRF-CEM = tested on: CCRF-CEM
Description: as §1, §2, §3, §4, §5

K562 = conditions: K562, 72 hr
Description: as §1, §2, §3, §4, §5

HepG2 = tested on: HepG2
Description: as §1, §2, §3, §4, §5

PANC-1 = conditions: PANC-1, 72 hr
Description: as §1, §2, §3, §4, §5

CFPAC-1 = tested on: CFPAC-1
Description: as §1, §2, §3, §4, §5

[1] = tested on: CCRF-CEM-cytarabine resistant
Description: as §1, §2, §3, §4, §5

MDA-MB-231 = conditions: MDA-MB-231, 72 hr
Description: as §1, §2, §3, §4, §5

BxPC-3 = tested on: BxPC-3
Description: as §1, §2, §3, §4, §5

[2] = Homo sapiens, MIA PaCa-2, MiaPACA-2, 72 hr

IC50 (MiaPACA-2; MiaPACA-2, 72 hr)	IC50 (HL-60; HL-60, 72 hr)	IC50 (NCI-H69; NCI-H69, 72 hr)	IC50 (HCT-116; HCT-116, 72 hr)	IC50 (CCRF-CEM)	IC50 (K562)	IC50 (HepG2; HepG2, 72 hr)	IC50 (PANC-1)	IC50 [1]	IC50 (MDA-MB-231)	IC50 (MiaPACA-2; [2])	IC50 (HCT-116; Homo sapiens, HCT-116, 72 h)	IC50 (K562; Homo sapiens)	IC50 (PANC-1; Homo sapiens)	IC50 (MDA-MB-231; Homo sapiens)	IC50 (BxPC-3; Homo sapiens, BXPC-3, 72 h)	SMILES	IC50 (A498; A498, 72 hr)	IC50 (CFPAC-1; CFPAC-1, 72 hr)	IC50 (A498; Homo sapiens, A498, 72 h)	IC50 (CFPAC-1; Homo sapiens, CFPAC-1, 72 h)	further results
1 to 10 µM	< 1 µM	1 to 10 µM	1 to 10 µM	< 1 µM	1 to 10 µM	1 to 10 µM	10 to 100 µM	1 to 10 µM	10 to 100 µM							Nc1ccn([C@@H]2S[C@H](COP(=O)(NCc3ccccc3)OCc3ccc([N+](=O)[O-])o3)[C@@H](O)[C@@H]2O)c(=O)n1 (single isomer, unassigned) [Compound 103 (diastereoisomer 2)]	1 to 10 µM	1 to 10 µM			IC50 (BxPC-3; BxPC-3, 72 hr): 1 to 10 µM
						1 to 10 µM		10 to 100 µM		10 to 100 µM	10 to 100 µM	10 to 100 µM	10 to 100 µM	10 to 100 µM	10 to 100 µM	COC(=O)COP(=O)(N[C@@H](CC(C)C)C(=O)OC)OC[C@H]1S[C@@H](n2ccc(N)nc2=O)[C@@H](O)[C@@H]1O (single isomer, unassigned) [Compound 104b (diastereoisomer 1)]			10 to 100 µM	10 to 100 µM	IC50 (HL-60; Homo sapiens, HL-60, 72 h): 1 to 10 µM; IC50 (NCI-H69; Homo sapiens, NCI-H69, 72 h): 10 to 100 µM; IC50 (CCRF-CEM; Homo sapiens, 72 h): < 1 µM
10 to 100 µM	< 1 µM	10 to 100 µM	10 to 100 µM	< 1 µM	10 to 100 µM	10 to 100 µM	10 to 100 µM	10 to 100 µM	10 to 100 µM							COC(=O)COP(=O)(N[C@@H](CC(C)C)C(=O)OC)OC[C@H]1S[C@@H](n2ccc(N)nc2=O)[C@@H](O)[C@@H]1O (single isomer, unassigned) [Compound 104b (diastereoisomer 2)]	10 to 100 µM	10 to 100 µM			IC50 (BxPC-3; BxPC-3, 72 hr): 10 to 100 µM
	1 to 10 µM	1 to 10 µM		1 to 10 µM				10 to 100 µM		1 to 10 µM	10 to 100 µM	10 to 100 µM	10 to 100 µM	10 to 100 µM	10 to 100 µM	CC(C)(C)SSCCOP(=O)(NCc1ccccc1)OC[C@H]1S[C@@H](n2ccc(N)nc2=O)[C@@H](O)[C@@H]1O (single isomer, unassigned) [Compound 105 (diastereoisomer 1)]			10 to 100 µM	10 to 100 µM	IC50 (HepG2; Homo sapiens, HepG2, 72 h): 10 to 100 µM
1 to 10 µM	10 to 100 µM	10 to 100 µM	10 to 100 µM	10 to 100 µM	10 to 100 µM	10 to 100 µM	10 to 100 µM	10 to 100 µM	10 to 100 µM							CC(C)(C)SSCCOP(=O)(NCc1ccccc1)OC[C@H]1S[C@@H](n2ccc(N)nc2=O)[C@@H](O)[C@@H]1O (single isomer, unassigned) [Compound 105 (diastereoisomer 2)]	10 to 100 µM	10 to 100 µM			IC50 (BxPC-3; BxPC-3, 72 hr): 10 to 100 µM
								10 to 100 µM		10 to 100 µM	10 to 100 µM	10 to 100 µM	10 to 100 µM	10 to 100 µM	10 to 100 µM	CC(=O)OC[C@H](C)NP1(=O)OC[C@H]2S[C@@H](n3ccc(N)nc3=O)[C@@H](O)[C@@H]2O1 (single isomer, unassigned) [Compound 108b (diastereoisomer 1)]			10 to 100 µM	10 to 100 µM	IC50 (HL-60; Homo sapiens, HL-60, 72 h): 10 to 100 µM; IC50 (NCI-H69; Homo sapiens, NCI-H69, 72 h): 10 to 100 µM; IC50 (CCRF-CEM; Homo sapiens, 72 h): 10 to 100 µM; IC50 (HepG2; Homo sapiens, HepG2, 72 h): 10 to 100 µM
								10 to 100 µM		1 to 10 µM	10 to 100 µM	10 to 100 µM	10 to 100 µM	10 to 100 µM	10 to 100 µM	Nc1ccn([C@@H]2S[C@H](COP(=O)(O)NCc3ccccc3)[C@@H](O)[C@@H]2O)c(=O)n1 [Compound 107, [(2R,3S,4S,5R)-5-(4-amino-2-oxo-pyrimidin-1-yl)-3,4-dihydroxy-tetrahydrothiophen-2-yl]methoxy-N-benzyl-phosphonamidic acid]			10 to 100 µM	10 to 100 µM	IC50 (HL-60; Homo sapiens, HL-60, 72 h): 1 to 10 µM; IC50 (NCI-H69; Homo sapiens, NCI-H69, 72 h): 10 to 100 µM; IC50 (CCRF-CEM; Homo sapiens, 72 h): 1 to 10 µM; IC50 (HepG2; Homo sapiens, HepG2, 72 h): 1 to 10 µM
